Measured values as given in PMC9151520 (Archives of Toxicology, 2022).
Where “and” joins values, the source holds several entries; their conditions need not be identical. Identical values can stand only once. Like-named read-outs stand apart in the source and are kept apart here.

Experiments:
[1] = tested on: p53 signaling (p53RE-bla HCT-116 cells); assay: cells; assay type: cell-based
[2] = tested on: p53 signaling (p53RE-bla HCT-116 cells); assay: cells; assay type: cell-based; remark: listed apart in the source
[3] = tested on: p53 signaling (p53RE-bla HCT-116 cells); assay: cells; assay type: cell-based; set-up: efficacy: unit not given here; details: for EC50: read-out: EC50
[4] = tested on: p53 signaling (p53RE-bla HCT-116 cells)
[5] = tested on: p53 signaling (p53RE-bla HCT-116 cells); remark: listed apart in the source
[6] = tested on: p53RE-bla HCT-116 cells
[7] = rat, microsomes, pH 7.4

Cc1cc(=O)oc2cc(O)ccc12.O [4-Methylumbelliferone hydrate]
EC50, p53 activation, cherry pick confirmation [1]: inactive | EC50, p53 activation, primary screening [1]: inactive | Efficacy, p53 activation, cherry pick confirmation [1]: inactive | Efficacy, p53 activation, primary screening [1]: inactive | EC50 [2]: Inactive | efficacy [3]: 25.18 ± 1.7 ( 100.84 ± 7.34 ) % | EC50 [3]: 25.2 µM | EC50 [4]: 23.3 µM | EC50 ([4]; read-out: EC50, p53 activation, cherry pick confirmation): 25.7 µM | EC50 ([4]; read-out: EC50, p53 activation, primary screening): 33.4 µM | EC50, p53 activation, cherry pick confirmation [5]: inactive | EC50, p53 activation, primary screening [5]: inactive | EC50, viability, cherry pick confirmation [6]: inactive | EC50, viability, primary screening [6]: inactive | Efficacy, viability, cherry pick confirmation [6]: inactive | Efficacy, viability, primary screening [6]: inactive | Microsome stability Half-life without cells [7]: 26.74 ± 0.98 min

COP(=S)(NC(C)C)Oc1ccc(C)cc1[N+](=O)[O-] (centres unmarked) [Amiprofos-methyl]
p53 activation EC50 [1]: inactive | p53 activation efficacy [1]: inactive | EC50 [2]: Inactive | efficacy [3]: 4.48 ± 0.3 ( 100.11 ± 8.75 ) % | EC50 [3]: 4.48 µM | EC50 [4]: 4.69 µM | activity outcome in p53-bla assay [4]: induce p53 signaling | p53 activation efficacy [4]: 84.8532 and 75.0867 | p53 activation EC50 [5]: inactive | Viability EC50 [6]: inactive | Viability efficacy [6]: inactive | Microsome stability Half-life without cells [7]: 1.11 min
